Columns and labels:
Format in all cases: cell-based
[1] = molecular target: T1, human TLR7 (Homo sapiens, UniProt Q9NYK1); test: TLR7 inhibition reporter assay (HEK-Blue cells, SEAP reporter, gardiquimod stimulation); settings: HEK-Blue cells overexpressing human TLR7, SEAP reporter, gardiquimod 7.5 μM; read-out: TLR7 IC50
T1 construct: host or cells: HEK-Blue cells
T1 sequence (Q9NYK1 27-1049): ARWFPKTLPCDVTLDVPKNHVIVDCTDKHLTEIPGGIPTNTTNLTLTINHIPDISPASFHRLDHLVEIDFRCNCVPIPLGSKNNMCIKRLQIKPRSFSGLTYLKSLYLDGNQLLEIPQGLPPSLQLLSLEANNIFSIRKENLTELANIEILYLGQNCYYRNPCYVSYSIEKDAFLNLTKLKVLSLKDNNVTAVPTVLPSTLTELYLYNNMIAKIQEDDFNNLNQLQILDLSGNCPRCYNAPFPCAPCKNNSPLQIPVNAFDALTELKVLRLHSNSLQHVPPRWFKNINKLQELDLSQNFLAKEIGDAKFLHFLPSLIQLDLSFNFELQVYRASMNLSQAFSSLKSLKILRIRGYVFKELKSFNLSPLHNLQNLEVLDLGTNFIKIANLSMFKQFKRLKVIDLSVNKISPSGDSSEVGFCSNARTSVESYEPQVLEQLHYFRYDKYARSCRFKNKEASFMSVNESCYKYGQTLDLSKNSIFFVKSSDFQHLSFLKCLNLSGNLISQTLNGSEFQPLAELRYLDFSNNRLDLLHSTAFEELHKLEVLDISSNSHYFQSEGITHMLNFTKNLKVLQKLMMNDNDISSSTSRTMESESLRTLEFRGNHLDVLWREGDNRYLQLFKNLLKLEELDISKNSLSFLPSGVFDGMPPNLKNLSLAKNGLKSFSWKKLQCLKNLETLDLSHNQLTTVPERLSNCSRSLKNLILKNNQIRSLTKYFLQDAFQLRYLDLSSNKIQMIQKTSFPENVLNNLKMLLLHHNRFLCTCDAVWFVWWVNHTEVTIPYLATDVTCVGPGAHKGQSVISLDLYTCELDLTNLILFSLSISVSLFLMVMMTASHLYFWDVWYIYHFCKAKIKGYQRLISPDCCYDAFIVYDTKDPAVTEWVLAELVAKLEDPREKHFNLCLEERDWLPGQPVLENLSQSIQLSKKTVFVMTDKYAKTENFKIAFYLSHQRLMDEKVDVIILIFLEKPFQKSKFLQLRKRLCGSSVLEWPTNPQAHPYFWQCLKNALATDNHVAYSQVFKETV
Summary of the method: (§1)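 Human TLR7/8/9 HEK-Blue reporter lines; dose range 0.05 nM–50 μM; 30 min RT preincubation; stimulus gardiquimod 7.5 μM / R848 15.9 μM / ODN2006 5 nM respectively; 22 h, 37 °C; SEAP detected colorimetrically.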

[2] = molecular target: T2, human TLR8 (Homo sapiens, UniProt Q9NR97); test: TLR8 inhibition reporter assay (HEK-Blue cells, SEAP reporter, R848 stimulation); settings: HEK-Blue cells overexpressing human TLR8, SEAP reporter, R848 15.9 μM; read-out: TLR8 IC50
T2 construct: host or cells: HEK-Blue cells
T2 sequence (Q9NR97 27-1041): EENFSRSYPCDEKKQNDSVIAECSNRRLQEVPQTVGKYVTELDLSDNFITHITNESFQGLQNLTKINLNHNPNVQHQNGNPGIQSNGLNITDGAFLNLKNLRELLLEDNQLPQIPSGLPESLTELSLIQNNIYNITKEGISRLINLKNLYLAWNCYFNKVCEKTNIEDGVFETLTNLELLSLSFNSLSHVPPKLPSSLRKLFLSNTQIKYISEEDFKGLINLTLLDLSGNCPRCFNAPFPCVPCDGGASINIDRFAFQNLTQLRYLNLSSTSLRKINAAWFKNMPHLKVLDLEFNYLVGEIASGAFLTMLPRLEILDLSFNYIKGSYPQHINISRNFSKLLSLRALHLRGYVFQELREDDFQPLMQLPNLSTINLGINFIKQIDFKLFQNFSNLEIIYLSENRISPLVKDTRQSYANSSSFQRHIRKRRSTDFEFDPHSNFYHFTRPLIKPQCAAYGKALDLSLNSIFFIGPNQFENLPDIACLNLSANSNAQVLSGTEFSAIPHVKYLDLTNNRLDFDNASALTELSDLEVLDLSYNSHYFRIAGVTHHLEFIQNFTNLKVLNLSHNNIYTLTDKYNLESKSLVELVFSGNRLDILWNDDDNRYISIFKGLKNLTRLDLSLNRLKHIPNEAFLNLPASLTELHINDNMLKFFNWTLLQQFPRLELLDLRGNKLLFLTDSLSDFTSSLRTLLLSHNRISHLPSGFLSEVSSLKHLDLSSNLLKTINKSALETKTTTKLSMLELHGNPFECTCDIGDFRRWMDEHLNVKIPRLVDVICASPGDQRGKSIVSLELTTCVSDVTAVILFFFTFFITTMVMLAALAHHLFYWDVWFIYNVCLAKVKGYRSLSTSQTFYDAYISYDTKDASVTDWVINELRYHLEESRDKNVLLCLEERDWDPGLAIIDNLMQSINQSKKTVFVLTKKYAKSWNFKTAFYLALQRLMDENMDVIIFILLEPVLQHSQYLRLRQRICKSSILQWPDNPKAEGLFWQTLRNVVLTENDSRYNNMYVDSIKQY
Summary of the method: as §1

[3] = molecular target: T3, human TLR9 (Homo sapiens, UniProt Q9NR96); test: TLR9 inhibition reporter assay (HEK-Blue cells, SEAP reporter, ODN2006 stimulation); settings: HEK-Blue cells overexpressing human TLR9, SEAP reporter, ODN2006 5 nM
T3 construct: host or cells: HEK-Blue cells
T3 sequence (Q9NR96 26-1032): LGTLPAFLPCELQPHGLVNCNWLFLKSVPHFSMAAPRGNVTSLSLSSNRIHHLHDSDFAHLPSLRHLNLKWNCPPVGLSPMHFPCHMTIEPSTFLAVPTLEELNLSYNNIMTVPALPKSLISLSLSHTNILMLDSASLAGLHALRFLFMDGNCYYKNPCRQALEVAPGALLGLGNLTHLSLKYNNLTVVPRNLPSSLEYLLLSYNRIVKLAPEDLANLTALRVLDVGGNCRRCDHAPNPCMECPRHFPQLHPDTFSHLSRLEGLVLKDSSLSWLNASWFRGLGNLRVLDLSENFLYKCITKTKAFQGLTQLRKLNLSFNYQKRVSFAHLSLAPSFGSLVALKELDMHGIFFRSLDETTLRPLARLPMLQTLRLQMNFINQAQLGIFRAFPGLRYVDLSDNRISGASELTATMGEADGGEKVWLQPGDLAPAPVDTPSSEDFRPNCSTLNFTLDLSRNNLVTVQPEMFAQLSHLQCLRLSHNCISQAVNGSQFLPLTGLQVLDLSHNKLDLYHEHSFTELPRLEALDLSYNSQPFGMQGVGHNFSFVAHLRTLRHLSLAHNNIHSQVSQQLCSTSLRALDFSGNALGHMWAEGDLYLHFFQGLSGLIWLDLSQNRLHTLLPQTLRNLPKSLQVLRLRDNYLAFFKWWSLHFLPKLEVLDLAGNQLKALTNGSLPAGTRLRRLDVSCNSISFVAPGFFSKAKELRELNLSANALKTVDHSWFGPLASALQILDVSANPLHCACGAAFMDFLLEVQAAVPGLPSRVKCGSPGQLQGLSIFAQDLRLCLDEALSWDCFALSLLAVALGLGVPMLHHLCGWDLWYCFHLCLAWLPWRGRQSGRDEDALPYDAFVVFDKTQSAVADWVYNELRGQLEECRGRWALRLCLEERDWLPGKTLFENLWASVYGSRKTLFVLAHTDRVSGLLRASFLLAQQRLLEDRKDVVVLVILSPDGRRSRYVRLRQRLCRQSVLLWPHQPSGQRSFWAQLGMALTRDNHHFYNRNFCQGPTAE
Summary of the method: as §1

Row | Structure (SMILES) | IC50 [1] [nM] | IC50 [2] [nM] | IC50 [3] [µM]
1 | COC(C)(C)CNC1CCC(c2nc3c(C(C)C)c(-c4cn5ncnc5c(C)c4C)[nH]c3s2)CC1 (single isomer, unassigned) [Example 186, 4-(5-(7,8-dimethyl-[1,2,4]triazolo[1,5-a]pyridin-6-yl)-6-isopropyl-4H-pyrrolo[3,2-d]thiazol-2-yl)-N-(2-methoxy-2-methylpropyl)cyclohexan-1-amine] | 1.59 | 0.21 | 5.92
2 | COC1CN(C2CCC(c3nc4c(C(C)C)c(-c5cn6ncnc6c(C)c5C)[nH]c4s3)CC2)C1 (single isomer, unassigned) [Example 188, 5-(7,8-dimethyl-[1,2,4]triazolo[1,5-a]pyridin-6-yl)-6-isopropyl-2-(4-(3-methoxyazetidin-1-yl)cyclohexyl)-4H-pyrrolo[3,2-d]thiazole] | 0.71 | 0.58 | 10.8
3 | CCN(C)C1CCC(c2nc3c(C(C)C)c(-c4cn5ncnc5c(C)c4C)[nH]c3s2)CC1 (single isomer, unassigned) [Example 191, 4-(5-(7,8-dimethyl-[1,2,4]triazolo[1,5-a]pyridin-6-yl)-6-isopropyl-4H-pyrrolo[3,2-d]thiazol-2-yl)-N-ethyl-N-methylcyclohexan-1-amine] | 1.5 | 1.79 | 9.37
4 | Cc1c(-c2[nH]c3sc(C4CCC(N5CC6(COC6)C5)CC4)nc3c2C(C)C)cn2ncnc2c1C (single isomer, unassigned) [Example 192, 6-(4-(5-(7,8-dimethyl-[1,2,4]triazolo[1,5-a]pyridin-6-yl)-6-isopropyl-4H-pyrrolo[3,2-d]thiazol-2-yl)cyclohexyl)-2-oxa-6-azaspiro[3.3]heptane] | 1.67 | 0.33 | 16.2
5 | Cc1c(-c2[nH]c3sc(C4CCC(N5CC6(COC6)C5)CC4)nc3c2C(C)C)cn2ncnc2c1C (single isomer, unassigned) [Example 193, 6-(4-(5-(7,8-dimethyl-[1,2,4]triazolo[1,5-a]pyridin-6-yl)-6-isopropyl-4H-pyrrolo[3,2-d]thiazol-2-yl)cyclohexyl)-2-oxa-6-azaspiro[3.3]heptane] | 1.97 | 4.45 | 7.63
6 | Cc1c(-c2[nH]c3sc(C4CCC(NC(C)C)CC4)nc3c2C(C)C)cn2ncnc2c1C (single isomer, unassigned) [Example 194, 4-(5-(7,8-dimethyl-[1,2,4]triazolo[1,5-a]pyridin-6-yl)-6-isopropyl-4H-pyrrolo[3,2-d]thiazol-2-yl)-N-isopropylcyclohexan-1-amine] | 0.9 | 0.37 | 9.22

Further molecules by falling IC50 [1], results first:

Row | IC50 [1] [nM] | IC50 [2] [nM] | IC50 [3] [µM] | Structure (SMILES)
7 | 10.4 | 4.25 | 8.72 | COC(C)(C)CNC1CCC(c2nc3c(C(C)C)c(-c4cn5ncnc5c(C)c4C)[nH]c3s2)CC1 (single isomer, unassigned) [Example 187, 4-(5-(7,8-dimethyl-[1,2,4]triazolo[1,5-a]pyridin-6-yl)-6-isopropyl-4H-pyrrolo[3,2-d]thiazol-2-yl)-N-(2-methoxy-2-methylpropyl)cyclohexan-1-amine]
8 | 7.42 | 3.38 | 23 | Cc1c(-c2[nH]c3sc(C4CCC(NC5COC5)CC4)nc3c2C(C)C)cn2ncnc2c1C (single isomer, unassigned) [Example 185, N-(4-(5-(7,8-dimethyl-[1,2,4]triazolo[1,5-a]pyridin-6-yl)-6-isopropyl-4H-pyrrolo[3,2-d]thiazol-2-yl)cyclohexyl)oxetan-3-amine]
9 | 3.35 | 5.18 | 10 | COC1CN(C2CCC(c3nc4c(C(C)C)c(-c5cn6ncnc6c(C)c5C)[nH]c4s3)CC2)C1 (single isomer, unassigned) [Example 189, 5-(7,8-dimethyl-[1,2,4]triazolo[1,5-a]pyridin-6-yl)-6-isopropyl-2-(4-(3-methoxyazetidin-1-yl)cyclohexyl)-4H-pyrrolo[3,2-d]thiazole]
10 | 1.01 | 0.84 | 11.4 | Cc1c(-c2[nH]c3sc(C4CCC(NC5COC5)CC4)nc3c2C(C)C)cn2ncnc2c1C (single isomer, unassigned) [Example 184, N-(4-(5-(7,8-dimethyl-[1,2,4]triazolo[1,5-a]pyridin-6-yl)-6-isopropyl-4H-pyrrolo[3,2-d]thiazol-2-yl)cyclohexyl)oxetan-3-amine]
11 | 0.8 | 0.58 | 8.35 | CCN(C)C1CCC(c2nc3c(C(C)C)c(-c4cn5ncnc5c(C)c4C)[nH]c3s2)CC1 (single isomer, unassigned) [Example 190, 4-(5-(7,8-dimethyl-[1,2,4]triazolo[1,5-a]pyridin-6-yl)-6-isopropyl-4H-pyrrolo[3,2-d]thiazol-2-yl)-N-ethyl-N-methylcyclohexan-1-amine]
